Measurements: patent US20200247794A1, “PHARMACOPHORES, COMPOUNDS AND METHODS HAVING APPLICATION IN THE TREATMENT OF CANCER THROUGH INHIBITION OF CYP17A1 AND CYP19A1” (MANGOSUTHU UNIVERSITY OF TECHNOLOGY, priority 2015, published 2020)
Where two headings read alike, the source gives them in different places.

Legend:
CYP17A1 [1] = target: T1, CYP17A1 (Homo sapiens, UniProt P05093); conditions: cited from earlier work; for pIC50: −log IC50 (M), converted from literature IC50; for IC50: literature value, no unit in the table, nM
T1 sequence (P05093 1-508): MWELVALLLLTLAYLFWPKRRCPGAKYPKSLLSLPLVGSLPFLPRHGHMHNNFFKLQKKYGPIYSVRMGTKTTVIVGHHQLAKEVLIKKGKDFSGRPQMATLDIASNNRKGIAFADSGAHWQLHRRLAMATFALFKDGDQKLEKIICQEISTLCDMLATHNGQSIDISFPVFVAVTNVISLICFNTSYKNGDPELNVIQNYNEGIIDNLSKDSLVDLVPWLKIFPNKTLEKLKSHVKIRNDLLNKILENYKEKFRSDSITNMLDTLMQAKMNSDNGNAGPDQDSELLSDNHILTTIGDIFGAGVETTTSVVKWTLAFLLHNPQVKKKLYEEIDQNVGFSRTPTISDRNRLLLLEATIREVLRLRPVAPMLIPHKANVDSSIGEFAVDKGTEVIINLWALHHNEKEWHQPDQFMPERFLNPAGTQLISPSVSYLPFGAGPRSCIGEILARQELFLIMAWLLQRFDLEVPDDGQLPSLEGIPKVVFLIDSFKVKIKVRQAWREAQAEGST

CYP17A1 [2] = target: T1, CYP17A1; assay: CYP17A1 inhibition (CYP17A1 bactosomes, progesterone substrate, LC-MS/MS); assay type: biochemical; parameters: purchased Cypex, Dundee, UK; host or cells: bacterial membranes (bactosomes); conditions: for inhibitory potency of CYP17A1 (in words): summary of Table 2; for IC50: 20 pmol/ml bactosomes, 0.1 μM progesterone, 50 μM to 50 nM
Procedure: CYP17A1 inhibition was measured using 20 pmol/ml CYP17A1 bactosomes (Cypex, Dundee, UK) and 0.1 μM progesterone as a substrate and 1 mM NADPH in 50 mM potassium phosphate buffer pH 7.4 containing 5 mM magnesium chloride. Inhibitors were dissolved in DMSO and serially diluted in seven ½ log steps, final concentrations ranging from 50 μM to 50 nM. Reaction volume was 100 μl and final DMSO concentration was 1% (v/v). Reactions were started by the addition of NADPH and incubated at 37° C. for 20 minutes with shaking at 1800 rpm on a Bioshake IQ (Q-Instruments, Jena, Germany). Reactions were terminated by the addition of 200 μl methanol containing 1 μM tolbutamide as an internal standard.

CYP1A2 = target: T2, CYP1A2 (Homo sapiens, UniProt P05177); assay: CYP inhibition, 5 CYP bactosome mix: CYP1A2 (tacrine); assay type: in vitro ADME; conditions: tacrine 0.5 μM
T2 construct: purchased Cypex, Dundee CYP/XG001, Batch XG001001; host or cells: E. coli
T2 sequence (P05177 1-516): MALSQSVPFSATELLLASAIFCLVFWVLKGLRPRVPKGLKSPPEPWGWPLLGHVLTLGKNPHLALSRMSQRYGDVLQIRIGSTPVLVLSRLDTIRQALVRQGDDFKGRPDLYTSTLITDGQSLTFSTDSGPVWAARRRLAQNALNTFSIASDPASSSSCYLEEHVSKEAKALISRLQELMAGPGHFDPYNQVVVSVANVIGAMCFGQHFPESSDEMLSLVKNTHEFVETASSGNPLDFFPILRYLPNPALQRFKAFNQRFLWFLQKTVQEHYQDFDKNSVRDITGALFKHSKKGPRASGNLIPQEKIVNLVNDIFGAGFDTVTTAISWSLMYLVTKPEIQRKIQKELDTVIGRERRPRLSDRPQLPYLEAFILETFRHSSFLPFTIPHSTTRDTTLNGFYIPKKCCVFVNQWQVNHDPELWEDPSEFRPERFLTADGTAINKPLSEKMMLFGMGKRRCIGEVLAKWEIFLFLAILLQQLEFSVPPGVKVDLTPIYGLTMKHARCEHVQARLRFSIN
Description: (§1) CYP Inhibition Against Major 5 Human Liver CYPs in E. coli CYPEX Membranes
The final DMSO concentration was 1%.

[3] = system: CYP1A2, CYP2C9, CYP2C19, CYP2D6, and CYP3A4; assay: CYP inhibition against major 5 human liver CYPs (panel, summary in words); assay type: in vitro ADME; conditions: drug-drug interaction remark
CYP2D6 = target: T3, CYP2D6 (Homo sapiens, UniProt P10635); assay: CYP inhibition, 5 CYP bactosome mix: CYP2D6 (bufuralol); assay type: in vitro ADME; conditions: bufuralol 10 μM
T3 construct: purchased Cypex, Dundee CYP/XG001, Batch XG001001; host or cells: E. coli
T3 sequence (P10635 whole entry): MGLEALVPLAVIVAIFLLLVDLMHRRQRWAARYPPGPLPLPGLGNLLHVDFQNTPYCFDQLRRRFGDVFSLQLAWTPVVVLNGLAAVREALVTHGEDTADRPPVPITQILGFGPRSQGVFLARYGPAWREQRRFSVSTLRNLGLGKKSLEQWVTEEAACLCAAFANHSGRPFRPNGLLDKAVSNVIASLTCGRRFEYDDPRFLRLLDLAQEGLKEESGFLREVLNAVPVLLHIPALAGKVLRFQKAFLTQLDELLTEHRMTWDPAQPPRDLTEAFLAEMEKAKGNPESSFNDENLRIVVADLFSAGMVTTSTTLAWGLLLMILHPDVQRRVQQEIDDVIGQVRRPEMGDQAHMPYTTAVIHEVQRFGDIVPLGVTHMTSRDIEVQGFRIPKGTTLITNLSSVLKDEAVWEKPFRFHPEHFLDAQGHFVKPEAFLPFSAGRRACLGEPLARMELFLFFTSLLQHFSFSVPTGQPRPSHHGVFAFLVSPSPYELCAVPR
Description: as §1
The final DMSO concentration was 1%.

CYP3A4 = target: T4, CYP3A4 (Homo sapiens, UniProt P08684); assay: CYP inhibition, 5 CYP bactosome mix: CYP3A4 (midazolam); assay type: in vitro ADME; conditions: midazolam 2.5 μM
T4 construct: purchased Cypex, Dundee CYP/XG001, Batch XG001001; host or cells: E. coli
T4 sequence (P08684 whole entry): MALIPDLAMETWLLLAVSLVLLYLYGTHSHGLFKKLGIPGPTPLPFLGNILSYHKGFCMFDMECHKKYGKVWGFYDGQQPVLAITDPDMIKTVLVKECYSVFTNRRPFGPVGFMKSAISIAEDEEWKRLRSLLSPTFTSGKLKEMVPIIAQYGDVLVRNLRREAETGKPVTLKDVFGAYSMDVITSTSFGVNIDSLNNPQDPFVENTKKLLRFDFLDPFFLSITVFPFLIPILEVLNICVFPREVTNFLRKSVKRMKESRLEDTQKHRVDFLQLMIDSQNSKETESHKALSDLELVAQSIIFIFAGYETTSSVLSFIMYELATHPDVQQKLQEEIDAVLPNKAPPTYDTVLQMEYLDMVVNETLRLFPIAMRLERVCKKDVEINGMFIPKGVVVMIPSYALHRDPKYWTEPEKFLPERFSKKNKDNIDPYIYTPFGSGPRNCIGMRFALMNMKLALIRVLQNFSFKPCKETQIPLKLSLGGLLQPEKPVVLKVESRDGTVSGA
Description: as §1
The final DMSO concentration was 1%.

CYP2C9 = target: T5, CYP2C9 (Homo sapiens, UniProt P11712); assay: CYP inhibition, 5 CYP bactosome mix: CYP2C9 (diclofenac); assay type: in vitro ADME; conditions: diclofenac 2 μM
T5 construct: purchased Cypex, Dundee CYP/XG001, Batch XG001001; host or cells: E. coli
T5 sequence (P11712 whole entry): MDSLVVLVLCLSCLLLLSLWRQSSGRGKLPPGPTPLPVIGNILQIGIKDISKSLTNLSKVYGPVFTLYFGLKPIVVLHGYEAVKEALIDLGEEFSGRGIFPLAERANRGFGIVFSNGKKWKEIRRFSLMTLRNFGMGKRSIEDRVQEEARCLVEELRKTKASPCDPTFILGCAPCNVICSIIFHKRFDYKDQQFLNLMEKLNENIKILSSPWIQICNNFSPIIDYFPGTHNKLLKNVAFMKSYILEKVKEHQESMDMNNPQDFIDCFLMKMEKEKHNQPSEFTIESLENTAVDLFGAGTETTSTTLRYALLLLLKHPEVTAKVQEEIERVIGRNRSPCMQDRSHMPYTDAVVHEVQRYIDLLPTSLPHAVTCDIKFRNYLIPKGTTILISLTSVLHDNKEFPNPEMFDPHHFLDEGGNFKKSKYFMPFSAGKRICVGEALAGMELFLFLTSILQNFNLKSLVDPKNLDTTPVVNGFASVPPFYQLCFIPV
Description: as §1
The final DMSO concentration was 1%.

CYP2C19 = target: T6, CYP2C19 (Homo sapiens, UniProt P33261); assay: CYP inhibition, 5 CYP bactosome mix: CYP2C19 ((S)-mephenytoin); assay type: in vitro ADME; conditions: (S)-mephenytoin 40 μM
T6 construct: purchased Cypex, Dundee CYP/XG001, Batch XG001001; host or cells: E. coli
T6 sequence (P33261 whole entry): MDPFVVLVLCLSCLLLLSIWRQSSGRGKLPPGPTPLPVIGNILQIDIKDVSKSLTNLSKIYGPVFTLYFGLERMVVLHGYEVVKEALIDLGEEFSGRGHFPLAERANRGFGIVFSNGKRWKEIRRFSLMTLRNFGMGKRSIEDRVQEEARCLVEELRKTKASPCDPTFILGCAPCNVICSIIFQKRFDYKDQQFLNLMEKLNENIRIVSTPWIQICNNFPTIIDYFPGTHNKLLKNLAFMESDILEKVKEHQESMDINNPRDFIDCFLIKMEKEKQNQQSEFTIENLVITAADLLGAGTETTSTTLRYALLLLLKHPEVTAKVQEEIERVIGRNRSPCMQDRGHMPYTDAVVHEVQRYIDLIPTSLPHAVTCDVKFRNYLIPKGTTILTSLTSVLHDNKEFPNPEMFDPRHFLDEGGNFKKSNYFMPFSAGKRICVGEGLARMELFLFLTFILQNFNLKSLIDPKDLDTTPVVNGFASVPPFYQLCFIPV
Description: as §1
The final DMSO concentration was 1%.

CYP19A1 = target: T7, CYP19A1 (Homo sapiens, UniProt P11511); assay: CYP19A1 inhibition (CYP19/MFC High Throughput Inhibitor Screen Kit, fluorescence); assay type: biochemical
T7 sequence (P11511 1-503): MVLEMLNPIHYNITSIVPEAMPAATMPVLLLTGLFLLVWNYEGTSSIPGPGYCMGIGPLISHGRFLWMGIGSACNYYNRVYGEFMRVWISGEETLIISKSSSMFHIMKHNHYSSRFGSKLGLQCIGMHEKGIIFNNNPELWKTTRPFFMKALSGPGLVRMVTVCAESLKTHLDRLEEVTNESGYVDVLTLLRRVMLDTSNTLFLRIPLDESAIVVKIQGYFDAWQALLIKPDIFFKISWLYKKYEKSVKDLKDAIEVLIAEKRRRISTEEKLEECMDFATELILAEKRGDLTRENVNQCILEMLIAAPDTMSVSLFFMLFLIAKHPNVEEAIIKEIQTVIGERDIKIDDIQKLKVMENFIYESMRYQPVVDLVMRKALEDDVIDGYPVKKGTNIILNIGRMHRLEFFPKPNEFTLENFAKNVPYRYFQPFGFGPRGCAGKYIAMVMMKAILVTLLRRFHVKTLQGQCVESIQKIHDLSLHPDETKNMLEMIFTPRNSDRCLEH
Procedure: Test compounds and control inhibitors were prepared as stocks in either Acetonitrile or DMSO from the solid compound. Compounds were serially diluted in ½ log steps in the same solvent.
CYP19A1 inhibition experiments were performed using the CYP19/MFC High Throughput Inhibitor Screen Kit (Corning).
CYP19A1 reactions were performed in black 96 well-plates (Greiner) according to the manufacturer's instructions. […] Final organic solvent concentrations were either 4% (v/v) acetonitrile or 0.5% (v/v) Dimethyl sulfoxide. The plates were covered with self-adhesive film lids and incubated for 10 minutes at 37° C. Reactions were terminated by the addition of 75 μl Stop Solution (100 mM Tris base in acetonitrile: MilliQ water (80:20).
Fluorescence of 7-Hydroxy-4-trifluoromethylcoumarin (HFC) was measured on a SpectraMax® i3x (Molecular Devices) using 409 nm and 530 nm as excitation and emission wavelengths, respectively.
The CYP activities for each test compound/positive control inhibitor at each concentration were converted to % of control activity (CA). The LC-MS/MS peak responses (CYP metabolite peak area/internal standard peak area) for each test compound or positive control inhibitor were used and the response for each sample was expressed as a percentage of an uninhibited control (DMSO incubation). The data were then expressed as (log(CA/100-CA) and used to generate a pseudo-Hill plot, the slope and y axis intercept are used to calculate the IC50-value according to the following equation.

[4] = 7.5 pmol/ml CYP19A1, 25 μM MFC, top concentration 50 μM (acetonitrile) or 25 μM (DMSO), read-out: CYP19A1 IC50

| Structure (SMILES) | pIC50 (CYP17A1 [1]) | inhibitory potency of CYP17A1 (in words) (CYP17A1 [2]) | IC50 (CYP17A1 [1]) | IC50 (CYP1A2) | inhibition of metabolic CYP450 isoforms (in words) [3] | IC50 (CYP2D6) | IC50 (CYP3A4) | IC50 (CYP2C9) | IC50 (CYP2C19) | IC50 (CYP17A1 [2]) | IC50 (CYP19A1) | IC50 (CYP19A1; [4]) |
| --- | --- | --- | --- | --- | --- | --- | --- | --- | --- | --- | --- | --- |
| O=C(NC1CC1)c1ccc2cc(C3(O)CCn4cncc43)ccc2c1 (racemic) [5bx [7]] | 6.600 | – | – | – | – | – | – | – | – | – | – | – |
| CCCC(=O)Nc1ccc(C(=O)C(C)OC(=O)c2n[nH]c3ccccc23)cc1 (racemic) [Compound 6, 1-(4-butanamidophenyl)-1-oxopropan-2-yl-1H-indazole-3-carboxylate] | – | micromolar levels | – | – | – | – | – | – | – | – | – | – |
| CNC(=O)c1ccc2cc(C(O)(c3cnc[nH]3)C(C)C)ccc2c1 (stereo not shown) [1 [11], 6-[1-Hydroxy-1-isopropyl(1H-imidazol-5-yl)methyl]-Nmethylnaphthalene-2-carboxamide] | 7.800 | – | – | – | – | – | – | – | – | – | – | – |
| Brc1ccc(Cc2ccncc2)cc1 [3g [11]] | 6.400 | – | – | – | – | – | – | – | – | – | – | – |
| COc1ccc(-c2ccc(Cc3ccncc3)cc2)cc1OC [9a [9], 4-[(3′,4′-Dimethoxybiphenyl-4-yl)methyl]pyridine] | – | – | 52 nM | – | – | – | – | – | – | – | – | – |
| Cl.Fc1ccc(-c2ccc3c(c2)CCC3c2cccnc2)cc1 (stereo not shown) [15 [13]] | 4.700 | – | – | – | – | – | – | – | – | – | – | – |
| CCc1ccc(NC(=O)c2cc(C(=O)c3cc(OC)ccc3O)coc2=N)cc1 [Compound 1, N-(4-ethylphenyl)-5-(2-hydroxy-5-methoxybenzoyl)-2-imino-2H-pyran-3-carboxamide] | – | micromolar levels | – | 27.9 µM | inhibit various CYP450 isoforms | 36.3 µM | 14.6 µM | 6.1 µM | 14.9 µM | > 50 µM | – | – |
| O=C(CSc1nnc(-c2c[nH]c3ccccc23)n1Cc1ccco1)NCc1ccccc1Cl [Compound 2, N-[(2-chlorophenyl)methyl]-2-({4-[(furan-2-yl)methyl]-5-(1H-indol-3-yl)-4H-1,2,4-triazol-3-yl}sulfanyl)acetamide] | – | micromolar levels | – | 4.5 µM | inhibit various CYP450 isoforms | 8.1 µM | 1.1 µM | 1.8 µM | 3.5 µM | > 50 µM | – | – |
| Cc1cccc(C(=O)OCCOc2ccc(S(N)(=O)=O)cc2)c1N [Compound 4, 2-(4-sulfamoylphenoxy)ethyl 2-amino-3-methylbenzoate] | – | – | – | – | inhibit various CYP450 isoforms | – | 3.3 µM | 16 µM | 1.5 µM | – | 43.5 µM | – |
| COC(C)C(=O)Nc1cccc(NC(C(N)=O)c2ccccc2)c1 (stereo not shown) [Compound 5, N-(3-{[carbamoyl(phenyl)methyl]amino}phenyl)-2-methoxypropanamide] | – | – | – | > 50 µM | – | > 50 µM | > 50 µM | > 50 µM | > 50 µM | – | – | > 50 µM |
| O=C1COc2cc(NCc3cccc(NC(=O)c4ccccc4Cl)c3)c(Cl)cc2N1 [Compound 7, 2-chloro-N-(3-{[(6-chloro-3-oxo-3,4-dihydro-2H-1,4-benzoxazin-7-yl)amino]methyl}phenyl)benzamide] | – | micromolar levels | – | > 50 µM | – | > 50 µM | 0.7 µM | – | > 50 µM | – | – | > 25 µM |
| O=C1COc2cc(NCc3cccc(C(=O)Nc4cccnc4)c3)c(O)cc2N1 [Compound 8, 3-{[(6-hydroxy-3-oxo-3,4-dihydro-2H-1,4-benzoxazin-7-yl)amino]methyl}-N-(pyridin-3-yl)benzamide] | – | – | – | 2.7 µM | – | > 50 µM | 2.8 µM | 7.9 µM | 44.6 µM | – | – | 5.9 µM |
| O=C(Nc1ccccc1O)c1ccc(Oc2cccc(C(=O)Nc3ccccc3O)c2)cc1 [Compound 9, N-(2-hydroxyphenyl)-4-{3-[(2-hydroxyphenyl)carbamoyl]phenoxy}benzamide] | – | micromolar levels | – | > 50 µM | – | > 50 µM | > 50 µM | > 50 µM | > 50 µM | > 50 µM | – | – |
| O=C1COc2cc(NCc3cccc(C(=O)Nc4cccnc4)c3)ccc2N1 [Compound 10, 3-{[(3-oxo-3,4-dihydro-2H-1,4-benzoxazin-7-yl)amino]methyl}-N-(pyridin-3-yl)benzamide] | – | micromolar levels | – | 2.1 µM | – | > 50 µM | 6.6 µM | > 50 µM | > 50 µM | > 50 µM | – | 5.7 µM |
| O=C1COc2cc(NCc3cccc(C(=O)Nc4ccccc4O)c3)ccc2N1 [Compound 11, N-(2-hydroxyphenyl)-3-{[(3-oxo-3,4-dihydro-2H-1,4-benzoxazin-7-yl)amino]methyl}benzamide] | – | – | – | 26.9 µM | inhibit various CYP450 isoforms | 2.7 µM | 8.3 µM | 4 µM | 7.6 µM | – | – | 8.6 µM |
| O=C1COc2cc(NCc3cccc(C(=O)Nc4cccnc4)c3)c(Cl)cc2N1 [Compound 13, 3-{[(6-chloro-3-oxo-3,4-dihydro-2H-1,4-benzoxazin-7-yl)amino]methyl}-N-(pyridin-3-yl)benzamide] | – | – | – | 0.6 µM | inhibit various CYP450 isoforms | > 50 µM | 1.1 µM | – | > 50 µM | > 50 µM | – | 14.5 µM |
| COc1cc2ccc([C@](O)(c3c[nH]cn3)C(C)C)cc2cc1OC [TAK700, [(1S)-1-(6,7-dimethoxy-2-naphthyl)-1-(1H-imidazol-4-yl)-2-methylpropan-1-ol]] | 7.550 | – | 28 nM | – | – | – | – | – | – | – | – | – |
